Values quoted from earlier work in article PMC10379611 (International Journal of Molecular Sciences, 2023).

Conditions: recommended clinical dose of Paxlovid; cited from earlier work

For `CC(C)c1nc(CN(C)C(=O)N[C@H](C(=O)N[C@@H](Cc2ccccc2)C[C@H](O)[C@H](Cc2ccccc2)NC(=O)OCc2cncs2)C(C)C)cs1` [Ritonavir], the observed plasma concentrations is given as 0.5 µM.
